In US20250345370A1, “MICROBIAL LIBERATION OF N-METHYLSEROTONIN FROM ORANGE FIBER” (Washington University, priority 2022, published 2025):

Key:
[1] = test system: colon gene expression; assay: RNA-Seq of colonic tissue of germ-free mice treated with 50 mg/kg/d N-methylserotonin; assay type: in vivo, germ-free C57BL/6J mice; details: for log2 fold-change: colon
[2] = Targeted LC-QqQ-MS of N-methylserotonin levels in gut contents, tissues, plasma and feces of gnotobiotic mice
[3] = biological target: 5-Htr2A (Homo sapiens, UniProt P28223); details: in vitro studies; cited from earlier work
Chain of 5-Htr2A (P28223 whole entry): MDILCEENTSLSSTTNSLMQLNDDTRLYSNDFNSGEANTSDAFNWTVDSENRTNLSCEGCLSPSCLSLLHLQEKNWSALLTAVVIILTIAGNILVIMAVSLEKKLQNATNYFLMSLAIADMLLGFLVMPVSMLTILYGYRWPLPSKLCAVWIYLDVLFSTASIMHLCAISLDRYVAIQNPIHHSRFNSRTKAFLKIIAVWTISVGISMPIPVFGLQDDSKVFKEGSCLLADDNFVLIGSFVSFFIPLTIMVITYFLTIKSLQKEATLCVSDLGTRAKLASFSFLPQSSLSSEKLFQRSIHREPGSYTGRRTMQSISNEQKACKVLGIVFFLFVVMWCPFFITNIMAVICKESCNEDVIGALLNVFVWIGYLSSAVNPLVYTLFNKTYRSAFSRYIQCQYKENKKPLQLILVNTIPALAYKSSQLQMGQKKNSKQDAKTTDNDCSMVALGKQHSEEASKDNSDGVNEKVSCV

[4] = 14-member consortium, 10% orange fiber diet

CNCCc1c[nH]c2ccc(O)cc12 [N-methylserotonin]
colonic expression of known (Htr7, Htr2A) or related (Htr3, Htr4, Htr5 and Htr6) receptors ([1]; 50 mg/kg/d vs untreated): did not reveal any statistically significant effects
number of genes with statistically significant differences in expression in colonic tissue ([1]; 50 mg/kg/d vs untreated, FDR-adjusted p<0.05): Seven hundred and forty-eight
log2 fold-change ([1]; gene 6430548M08Rik): 0.47
log2 fold-change ([1]; gene Aass): 4.35
log2 fold-change ([1]; gene Adgrg6): 1.06
log2 fold-change ([1]; gene Adgrl1): 0.82
log2 fold-change ([1]; gene Aldh1l2): 1.36
log2 fold-change ([1]; gene Ankrd35): 1.27
log2 fold-change ([1]; gene Anxa9): 3.41
log2 fold-change ([1]; gene Arhgef17): 0.43
log2 fold-change ([1]; gene Atf5): 0.70
log2 fold-change ([1]; gene Atp6v1c2): 5.46
log2 fold-change ([1]; gene Azgp1): 3.05
log2 fold-change ([1]; gene Baiap2): 0.55
log2 fold-change ([1]; gene Bcl9l): 0.57
log2 fold-change ([1]; gene Bhlha15): 2.54
log2 fold-change ([1]; gene C1s2): 6.81
log2 fold-change ([1]; gene Cabp1): 2.18
log2 fold-change ([1]; gene Cbx6): 0.65
log2 fold-change ([1]; gene Cecr2): 1.23
log2 fold-change ([1]; gene Cirbp): 0.65
log2 fold-change ([1]; gene Clca4a): 0.41
log2 fold-change ([1]; gene Col18a1): 0.40
log2 fold-change ([1]; gene Crybg2): 0.56
log2 fold-change ([1]; gene Dbp): 1.14
log2 fold-change ([1]; gene Derl3): 3.02
log2 fold-change ([1]; gene Dixdc1): 0.49
log2 fold-change ([1]; gene Dkkl1): 4.99
log2 fold-change ([1]; gene Dnase2b): 6.74
log2 fold-change ([1]; gene Doxl2): 0.01
log2 fold-change ([1]; gene Epop): 1.75
log2 fold-change ([1]; gene Fam214a): 0.49
log2 fold-change ([1]; gene Fbf1): 0.51
log2 fold-change ([1]; gene Fgl1): 3.75
log2 fold-change ([1]; gene Gdf7): 2.66
log2 fold-change ([1]; gene Gdf10): 0.91
log2 fold-change ([1]; gene Gm973): 1.71
log2 fold-change ([1]; gene Gprc5c): 2.14
log2 fold-change ([1]; gene Gsdma): 3.93
log2 fold-change ([1]; gene Gspt2): 1.14
log2 fold-change ([1]; gene Hdac7): 0.63
log2 fold-change ([1]; gene Hoxd9): 1.18
log2 fold-change ([1]; gene Igfbp5): 0.78
log2 fold-change ([1]; gene Impdh1): 0.53
log2 fold-change ([1]; gene Islr): 0.52
log2 fold-change ([1]; gene Itpripl2): 0.42
log2 fold-change ([1]; gene Jag2): 0.92
log2 fold-change ([1]; gene Kdm6b): 0.57
log2 fold-change ([1]; gene Krt14): 2.57
log2 fold-change ([1]; gene Lamc1): 0.37
log2 fold-change ([1]; gene Lrrc75b): 2.59
log2 fold-change ([1]; gene Man2a2): 0.35
log2 fold-change ([1]; gene Masp1): 1.38
log2 fold-change ([1]; gene Mns1): 1.12
log2 fold-change ([1]; gene Mtss2): 0.61
log2 fold-change ([1]; gene Mxra8): 0.45
log2 fold-change ([1]; gene Nkx3-1): 0.01
log2 fold-change ([1]; gene Npr1): 0.99
log2 fold-change ([1]; gene Nr1d1): 0.81
log2 fold-change ([1]; gene Nucb2): 3.53
log2 fold-change ([1]; gene Pacsin3): 0.87
log2 fold-change ([1]; gene Panct2): 1.72
log2 fold-change ([1]; gene Pate4): 7.55
log2 fold-change ([1]; gene Pate9): 0.01
log2 fold-change ([1]; gene Pate14): 6.47
log2 fold-change ([1]; gene Per2): 0.67
log2 fold-change ([1]; gene Pgm5): 0.29
log2 fold-change ([1]; gene Pik3ip1): 1.04
log2 fold-change ([1]; gene Pitpnm3): 0.67
log2 fold-change ([1]; gene Plau): 0.93
log2 fold-change ([1]; gene Pou3f3): 1.18
log2 fold-change ([1]; gene Prrc2a): 0.49
log2 fold-change ([1]; gene Ptges): 1.14
log2 fold-change ([1]; gene Rapgef3): 0.54
log2 fold-change ([1]; gene Rbms3): 0.45
log2 fold-change ([1]; gene Rcn1): 2.72
log2 fold-change ([1]; gene Rec8): 1.38
log2 fold-change ([1]; gene Rgs7bp): 0.57
log2 fold-change ([1]; gene Rhobtb3): 0.86
log2 fold-change ([1]; gene Serpine2): 2.50
log2 fold-change ([1]; gene Serpinf1): 0.82
log2 fold-change ([1]; gene Shroom1): 2.33
log2 fold-change ([1]; gene Slc4a8): 1.04
log2 fold-change ([1]; gene Slc23a1): 1.80
log2 fold-change ([1]; gene Sp8): 2.57
log2 fold-change ([1]; gene Spinkl): 7.58
log2 fold-change ([1]; gene Spock2): 0.54
log2 fold-change ([1]; gene Sptb): 0.85
log2 fold-change ([1]; gene Stard5): 0.43
log2 fold-change ([1]; gene Sva): 6.86
log2 fold-change ([1]; gene Syvn1): 0.58
log2 fold-change ([1]; gene Tgfbr3): 0.43
log2 fold-change ([1]; gene Tgm4): 9.55
log2 fold-change ([1]; gene Tmem44): 0.56
log2 fold-change ([1]; gene Tns1): 0.44
log2 fold-change ([1]; gene Uox): 2.40
log2 fold-change ([1]; gene Upk1b): 2.61
log2 fold-change ([1]; gene Vat1): 0.64
log2 fold-change ([1]; gene Vwa1): 0.64
log2 fold-change ([1]; gene Zbtb4): 0.37
log2 fold-change ([1]; gene Zbtb16): 1.21
log2 fold-change ([1]; gene Zfhx3): 0.54
fecal N-methylserotonin levels ([2]; 14-member community, orange fiber-supplemented HiSF-LoFV diet): 131±19 ng/g feces
N-methylserotonin in cecal contents [2, 4]: 173 ± 14 ng/g
N-methylserotonin in cecal tissue [2, 4]: 130 ± 13 ng/g
N-methylserotonin in colonic contents [2, 4]: 139 ± 13 ng/g
N-methylserotonin in colonic tissue [2, 4]: 164 ± 25 ng/g
N-methylserotonin in plasma [2, 4]: 1.22 ± 0.76 ng/mL
N-methylserotonin in small intestine, liver, gastrocnemius muscle and kidney [2, 4]: < 1 ng/g
N-methylserotonin in cecal or colonic contents or intestinal and extra-intestinal tissues ([2]; 14-member consortium, 10% pea fiber diet, below limits of detection): < 0.5 ng/g
fecal N-methylserotonin levels ([2]; germ-free mice, 1 mg/kg/day in drinking water): 133.5 ± 15 ng/g
binding [3]: binds
